Assay results taken from patent publication US6610699B2, “Use of L-carnitine and its alkanoyl derivatives in the preparation of medicaments with anticancer activity” (Sigma-Tau Industrie Farmaceutiche Riunite S.p.A., priority 1998, dated 2003).

What was measured:
[1] = tested on: L-MM3 murine breast cancer cells; experiment: L-MM3 murine breast cancer in Balb/c mice, taxol and PLC, Experiment A (schedule A)
Method: (§2) Cell cultures of L-MM3 murine breast cancer cells were used, cultured at 37° C. in plastic flasks in a humidified atmosphere with 5% CO^2. The cells were grown in DMEM supplemented with 10% FCS and in the presence of 2 mM L-glutamine and 80 μg/ml of gentamicin. The subconfluent cells were collected during the exponential growth phase using trypsin-EDTA and re-suspended in DMEM. They were then injected subcutaneously in female Balb/c mice weighing 20 g at a density of 4×10^5.
(§3) The tumour was measured with a calliper three times a week as soon as it became palpable. The tumour mass is calculated on the basis of the measurements of the two dimensions (length and width), expressed in mm, according to the following formula: [formula]
(§4) If we consider conventionally a tumour density equal to 1, the result is that the tumour volume is equal to (mm^3=mg).
(§5) The agent is weighed, solubilised in the specific vehicle (12 mg/ml), and stored at +4° C., sheltered from the light. At the time of use, it is diluted 1:4 with saline solution in phosphate buffer (PBS, SIGMA) and injected.
(§6) Cremophor is diluted 1:1 with ethanol and stored sheltered from the light. On the day of treatment it is diluted 1:4 with PBS.

[2] = tested on: L-MM3 murine breast cancer cells; experiment: L-MM3 murine breast cancer in Balb/c mice, taxol and PLC, Experiment B (schedule B)
Method: as §2, §3, §4, §5, §6

Hamsters [3] = experiment: Bleomycin-induced pulmonary toxicity in hamsters: lung hydroxyproline content; format: in vivo, hamster; conditions: pre-treatment i.p. (ALC 200 mg/kg or saline, daily 1 week)/intratracheal instillation (bleomycin 1 unit or saline); day 22
Method: (§1) Hamsters weighing 120 g were treated with bleomycin (1 unit) by the intratracheal route (IT) or with an equivalent volume of saline. In addition, the animals were pre-treated with ALC (200 mg/kg) or saline intraperitoneally just before the instillation of bleomycin, followed by daily injections for 1 week. The animals were allowed 3 weeks to recover prior to taking the tissue samples. At the time tissue samples were taken (day 22), one lung of each animal was prepared for histological investigation and the other lung for quantitative determination of hydroxyproline.
The hydroxyproline content (one of the main constituents of collagen) was measured using the known Woessner method. Lung samples were homogenised, hydrolysed with NaOH, and then left to oxidise before adding Erlich aldehyde reagent. Duplicate aliquots of each sample were assayed by spectrophotometry and compared with a standard calibration curve obtained with purified hydroxyproline. The hydroxyproline content (HYP) is expressed as mg/lung.

Hamsters [4] = experiment: Bleomycin-induced pulmonary toxicity in hamsters: lung histology; format: in vivo, hamster; conditions: pre-treatment/IT instillation; day 22
Method: as §1
The lungs were fixed by insufflation at 20 cm of H2O ex vivo with 10% formaldehyde in PBS (pH 7), embedded in paraffin, sectioned and stained with haematoxylin/eosin. Sections with similar orientation from the portion of the pulmonary lobe—upper, middle and lower, respectively—were examined to verify the presence and degree of inflammatory infiltrate, oedema and interstitial and intra-alveolar fibrosis.

Compound: CCC(=O)O[C@H](CC(=O)[O-])C[N+](C)(C)C [PLC, propionyl L-carnitine]
- Animals with tumours/total number of animals, Day 22 [1]: 6/12
- Animals with tumours/total number of animals, Day 25 [1]: 9/12
- Animals with tumours/total number of animals, Day 28 [1]: 11/12
- Animals with tumours/total number of animals, Day 36 [1]: 12/12
- Animals with tumours/total number of animals, Day 46 [1]: 12/12
- Tumour size, Day 22 [1]: 0.6 ± 0.3
- Tumour size, Day 25 [1]: 1.2 ± 0.38
- Tumour size, Day 28 [1]: 3 ± 0.4
- Tumour size, Day 36 [1]: 9.5 ± 0.8
- Tumour size, Day 46 [1]: 15 ± 1.1
- Tumour size, Day 0 ([1]; day of inoculation): 0
- Animals with tumours/total number of animals, Day 19 ([1]; taxol 30 mg/kg i.p. days 15,17,19,21, PLC 100 mg/kg s.c. days 12-24): 4/12
- Animals with tumours/total animals, Day 45 [2]: 8/10
- Animals with tumours/total animals, Day 59 [2]: 8/10
- Tumour size, Day 26 [2]: 0.4 ± 0.3
- Tumour size, Day 31 [2]: 0.5 ± 0.3
- Tumour size, Day 37 [2]: 1.3 ± 0.6
- Tumour size, Day 41 [2]: 2.2 ± 1.0
- Tumour size, Day 45 [2]: 3.9 ± 1.2
- Tumour size, Day 53 [2]: 5.6 ± 1.4
- Tumour size, Day 59 [2]: 8 ± 2.2
- Tumour size, Day 0 ([2]; day of inoculation): 0
- Animals with tumours/total animals, Day 31 ([2]; taxol 30 mg/kg i.p. days 8,10,12,14, PLC 100 mg/kg s.c. to day 59): 3/10

Compound: bleomycin [Saline/bleomycin, reference compound]
- hydroxyproline content (HYP) (Hamsters [3]): 1.831 mg/lung
- lung histology (in words) (Hamsters [4]): dense fibrosis, alveolar atelectasis and oedema
